Measurements as given in ChEMBL document CHEMBL4673312, “Optimization of piperidine constructed peptidyl derivatives as proteasome inhibitors” (Bioorg Med Chem, 2021).

Test: in vitro
Settings: rat, plasma

Row | Structure (SMILES) | half-life at 2 µM
1 | CC(C)(C)CNC(=O)C[C@H](NC(=O)N1CCC(NC(=O)c2ccc(F)cc2)CC1)C(=O)N[C@@H](CCc1ccccc1)C(=O)NCc1ccccc1Cl | 1.53 h
2 | CC(C)(C)CNC(=O)C[C@H](NC(=O)[C@H](CC(=O)NCC(C)(C)C)NC(=O)N1CCC(C(=O)Nc2cccnc2)CC1)C(=O)NCc1ccccc1Cl | 1.2 h
